Assay results reported in patent US20240239766A1, “3-AMINO PIPERIDYL SODIUM CHANNEL INHIBITORS” (Genentech, Inc., priority 2021, published 2024).
Where a name gives a salt, the structure may show the parent alone.

Each compound was assayed against hNav1.7 (Homo sapiens (Human), UniProt Q15858) (assay: Patch voltage clamp electrophysiology assay (EP), Syncropatch 384PE, CHO cells expressing Nav1.7). Conditions: holding potential −50 mV; 7.5 min compound incubation; read-out: EP SP hNav1.7 EVO (IC50).
hNav1.7, sequence (Q15858 other isoform, or with tags, fused parts or gaps): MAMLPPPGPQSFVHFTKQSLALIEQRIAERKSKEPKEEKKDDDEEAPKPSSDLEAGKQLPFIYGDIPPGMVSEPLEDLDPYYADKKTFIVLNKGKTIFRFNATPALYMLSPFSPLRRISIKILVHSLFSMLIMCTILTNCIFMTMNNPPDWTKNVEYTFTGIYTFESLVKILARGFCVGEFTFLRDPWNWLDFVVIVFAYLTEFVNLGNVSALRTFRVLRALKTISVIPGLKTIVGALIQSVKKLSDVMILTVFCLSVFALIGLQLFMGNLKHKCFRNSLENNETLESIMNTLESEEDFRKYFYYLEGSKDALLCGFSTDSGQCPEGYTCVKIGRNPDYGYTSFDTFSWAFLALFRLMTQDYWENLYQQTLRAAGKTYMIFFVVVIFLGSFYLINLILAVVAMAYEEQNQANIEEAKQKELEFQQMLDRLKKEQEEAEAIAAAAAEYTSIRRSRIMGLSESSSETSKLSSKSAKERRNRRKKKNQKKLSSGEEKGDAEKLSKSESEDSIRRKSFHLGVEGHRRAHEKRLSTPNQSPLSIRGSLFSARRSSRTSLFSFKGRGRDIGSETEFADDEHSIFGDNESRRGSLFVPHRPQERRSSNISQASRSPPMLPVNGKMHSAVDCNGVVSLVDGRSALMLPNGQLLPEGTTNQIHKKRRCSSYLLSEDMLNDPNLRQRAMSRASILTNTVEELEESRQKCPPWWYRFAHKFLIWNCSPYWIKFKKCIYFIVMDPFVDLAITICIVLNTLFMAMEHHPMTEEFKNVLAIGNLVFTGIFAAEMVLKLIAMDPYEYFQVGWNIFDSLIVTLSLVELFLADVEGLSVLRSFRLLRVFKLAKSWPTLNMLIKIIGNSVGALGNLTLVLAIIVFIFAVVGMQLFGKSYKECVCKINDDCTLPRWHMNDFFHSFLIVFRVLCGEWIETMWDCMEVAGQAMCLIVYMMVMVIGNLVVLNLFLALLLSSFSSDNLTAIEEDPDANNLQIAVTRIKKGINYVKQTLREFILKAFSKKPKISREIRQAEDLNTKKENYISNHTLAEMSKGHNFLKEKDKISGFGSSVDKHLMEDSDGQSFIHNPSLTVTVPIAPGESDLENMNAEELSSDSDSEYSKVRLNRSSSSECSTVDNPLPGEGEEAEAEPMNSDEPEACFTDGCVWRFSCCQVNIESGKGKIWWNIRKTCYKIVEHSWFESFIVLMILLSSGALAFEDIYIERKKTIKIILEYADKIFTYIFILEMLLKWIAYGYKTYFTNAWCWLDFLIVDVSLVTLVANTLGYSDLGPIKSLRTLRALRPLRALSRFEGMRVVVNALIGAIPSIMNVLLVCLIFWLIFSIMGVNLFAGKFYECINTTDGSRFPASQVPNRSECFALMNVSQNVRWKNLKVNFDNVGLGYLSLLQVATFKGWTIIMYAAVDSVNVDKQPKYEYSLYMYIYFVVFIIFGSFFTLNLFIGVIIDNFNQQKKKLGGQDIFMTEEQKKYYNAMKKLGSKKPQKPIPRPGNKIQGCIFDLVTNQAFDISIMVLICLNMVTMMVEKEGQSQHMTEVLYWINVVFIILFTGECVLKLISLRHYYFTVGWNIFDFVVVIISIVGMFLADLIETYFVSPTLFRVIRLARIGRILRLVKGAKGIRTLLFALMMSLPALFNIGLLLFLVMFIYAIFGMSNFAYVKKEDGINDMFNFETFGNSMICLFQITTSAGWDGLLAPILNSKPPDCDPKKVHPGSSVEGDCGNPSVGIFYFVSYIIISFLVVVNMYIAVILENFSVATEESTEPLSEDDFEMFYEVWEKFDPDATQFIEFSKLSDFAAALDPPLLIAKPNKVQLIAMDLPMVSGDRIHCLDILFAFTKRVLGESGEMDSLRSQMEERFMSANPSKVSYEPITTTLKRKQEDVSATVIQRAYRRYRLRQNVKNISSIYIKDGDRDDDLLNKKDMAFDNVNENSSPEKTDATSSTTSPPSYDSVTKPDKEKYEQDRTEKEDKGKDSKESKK
Type: cell-based
Excerpt: Example 101c: Electrophysiological Assay (EP) (In Vitro Assay)
Patch voltage clamp electrophysiology allows for the direct measurement and quantification of block of voltage-gated sodium channels (NaV's), and allows the determination of the time- and voltage-dependence of block which has been interpreted as differential binding to the resting, open, and inactivated states of the sodium channel (Hille, B., Journal of General Physiology (1977), 69: 497-515).
The following voltage clamp electrophysiology studies are performed on representative compounds using cells heterologously expressing Nav1.7 or Nav1.5 channels. cDNAsfor Nav1.7 (NM_002977) and Nav1.5 (AC137587) are stably expressed in Chinese Hamstr Ovary (CHO) cells and CHL (Chinese Hamster Lung) cells respectively. Sodium currents are measured in the whole-cell configuration using Syncropatch 384PE (Nanlon Technologies, Germany). 1NPC®-384 chips with custom medium resistance and single hole mode are used. Internal solution consists of (in mM): […], 10 CsCl, 20 EGTA, and 10 Hepes (pH adjusted to 7.2); and external solution contains (in mM): 60 NMDG, 80 NaCl, 4 KCl, 1 MgCl2, 2 CaCl2), 2 D-Glucose monohydrate, 10 Hepes (pH adjusted to 7.4 with NaOH).
After system flushing, testing compounds are dissolved in external solution containing 0.1% Pluronic F-127. The chip is moved into the measuring head and the instrument primes the chip with external and internal solutions. 10 μl cells are added to the chip from a cell hotel, and a negative pressure of −50 mBar is applied to form a seal. Following treatment with seal enhancer solution and wash-off with external solution, negative pressure of −250 mbar is applied for 1 second to achieve the whole-cell configuration, followed by three washing steps in external solution. 20 μl of compounds is added to 40 μl in each well (1:3 dilution of compounds), and after mixing, 20 μl is removed so the volume is retained at 40 ul. After approximately 13 minutes recordings, 20 μl/well of 2 uM TTX, or 333 uM Tetracaine (for Nav1.5) is added to achieve full block.
For voltage protocol, an holding potential of −50 mV is applied during the whole experiment. A depolarizing step is applied to −10 mV for 10 ms, followed by a hyperpolarization step to −150 mV for 20 ms to allow channel recovery from inactivation. A second depolarizing step is applied from −150 mV to −10 mV for 10 ms, where currents are measured to derive blocking effects of compounds. Inhibition is determined based on 7.5 min of compound incubation.

In order of falling IC50:
1. CN(C)[C@@]1(CCc2cccc(C(F)(F)F)n2)CCCN(c2cc(F)c(S(=O)(=O)Nc3ccncn3)c(F)c2)C1 [Example 97, (R)-4-(3-(Dimethylamino)-3-(2-(6-(trifluoromethyl)pyridin-2-yl)ethyl)-piperidin-1-yl)-2,6-difluoro-N-(pyrimidin-4-yl)benzenesulfonamide formate]  10 µM
2. CN(C)[C@@]1(CC2CCCC2)CCCN(c2cc(F)c(S(=O)(=O)Nc3ccncn3)c(F)c2)C1 [Example 99, (R)-4-(3-(Cyclopentylmethyl)-3-(dimethylamino)piperidin-1-yl)-2,6-difluoro-N-(pyrimidin-4-yl)benzenesulfonamide]  8.95 µM
3. CN(C)[C@@]1(C[C@@H]2CCc3ccc(C(F)(F)F)cc32)CCCN(c2cc(F)c(S(=O)(=O)Nc3ccncn3)c(F)c2)C1 [Example 46, 4-((R)-3-(Dimethylamino)-3-(((S)-6-(trifluoromethyl)-2,3-dihydro-1H-inden-1-yl)methyl)piperidin-1-yl)-2,6-difluoro-N-(pyrimidin-4-yl)benzenesulfonamide formate]  1.32 µM
4. Cc1cc(N2CCC[C@](CCc3cccc(C(F)(F)F)c3)(N(C)C)C2)cc(F)c1S(=O)(=O)Nc1ccncn1 [Example 9, (S)-4-(3-(Dimethylamino)-3-(3-(trifluoromethyl)phenethyl)-piperidin-1-yl)-2-fluoro-6-methyl-N-(pyrimidin-4-yl)benzenesulfonamide]  0.597 µM
5. CN(C)[C@@]1(CCc2cccc(C(F)(F)F)c2Cl)CCCN(c2cc(F)c(S(=O)(=O)Nc3ccncn3)c(F)c2)C1 [Example 40, (S)-4-(3-(2-Chloro-3-(trifluoromethyl)phenethyl)-3-(dimethylamino)piperidin-1-yl)-2,6-difluoro-N-(pyrimidin-4-yl)benzenesulfonamide]  0.531 µM
6. CN(C)[C@@]1(C[C@H]2CCc3ccc(C(F)(F)F)cc32)CCCN(c2cc(F)c(S(=O)(=O)Nc3ccncn3)c(F)c2)C1 [Example 47, 4-((R)-3-(Dimethylamino)-3-(((R)-6-(trifluoromethyl)-2,3-dihydro-1H-inden-1-yl)methyl)piperidin-1-yl)-2,6-difluoro-N-(pyrimidin-4-yl)benzenesulfonamide formate]  0.307 µM
7. CN(C)[C@]1(CCC2CCCCC2)CCCN(c2cc(F)c(S(=O)(=O)Nc3ccncn3)c(F)c2)C1 [Example 93, (R)-4-(3-(2-Cyclohexylethyl)-3-(dimethylamino)piperidin-1-yl)-2,6-difluoro-N-(pyrimidin-4-yl)benzenesulfonamide formate]  0.245 µM
8. CN(C)[C@]1(CC2CCCC2)CCCN(c2cc(F)c(S(=O)(=O)Nc3ccncn3)c(F)c2)C1 [Example 100, (S)-4-(3-(Cyclopentylmethyl)-3-(dimethylamino)piperidin-1-yl)-2,6-difluoro-N-(pyrimidin-4-yl)benzenesulfonamide]  0.13 µM
9. CN(C)[C@@]1(C2CC(c3cccc(C(F)(F)F)c3)C2)CCCN(c2cc(F)c(S(=O)(=O)Nc3ccncn3)c(F)c2)C1 (stereo partly drawn) [Example 94, 4-((R)-3-(Dimethylamino)-3-((1r,3R)-3-(3-(trifluoromethyl)phenyl)-cyclobutyl)piperidin-1-yl)-2,6-difluoro-N-(pyrimidin-4-yl)benzenesulfonamide]  0.127 µM
10. CN(C)[C@]1(CCc2cccc(C(F)(F)F)n2)CCCN(c2cc(F)c(S(=O)(=O)Nc3ccncn3)c(F)c2)C1 [Example 98, (S)-4-(3-(Dimethylamino)-3-(2-(6-(trifluoromethyl)pyridin-2-yl)ethyl)piperidin-1-yl)-2,6-difluoro-N-(pyrimidin-4-yl)benzenesulfonamide formate]  0.0625 µM
11. CN1CC(N(C)[C@]2(CCc3cccc(C(F)(F)F)c3)CCCN(c3ccc(S(=O)(=O)Nc4ccncn4)c(F)c3)C2)C1 [Example 35, (R)-2-Fluoro-4-(3-(methyl(1-methylazetidin-3-yl)amino)-3-(3-(trifluoromethyl)phenethyl)piperidin-1-yl)-N-(pyrimidin-4-yl)benzenesulfonamide]  0.0407 µM
12. CN(C)C1(C2CC(c3cccc(C(F)(F)F)c3)C2)CCCN(c2cc(F)c(S(=O)(=O)Nc3ccncn3)c(F)c2)C1 (stereo not shown) [Example 95, 4-(3-(Dimethylamino)-3-(3-(3-(trifluoromethyl)phenyl)-cyclobutyl)piperidin-1-yl)-2,6-difluoro-N-(pyrimidin-4-yl)benzenesulfonamide]  0.0141 µM
13. CN(C)[C@]1(C[C@@H]2CCc3ccc(C(F)(F)F)cc32)CCCN(c2cc(F)c(S(=O)(=O)Nc3ccncn3)c(F)c2)C1 [Example 49, 4-((S)-3-(Dimethylamino)-3-(((S)-6-(trifluoromethyl)-2,3-dihydro-1H-inden-1-yl)methyl)piperidin-1-yl)-2,6-difluoro-N-(pyrimidin-4-yl)benzenesulfonamide formate]  0.0111 µM
14. CN1CCC(CN(C)C2(CCc3cccc(C(F)(F)F)c3)CCCN(c3ccc(S(=O)(=O)Nc4ccncn4)c(F)c3)C2)C1 (stereo not shown) [Example 31, 2-Fluoro-4-(3-(methyl((1-methylpyrrolidin-3-yl)methyl)amino)-3-(3-(trifluoromethyl)phenethyl)piperidin-1-yl)-N-(pyrimidin-4-yl)benzenesulfonamide formate]  0.00859 µM
15. CN(C)[C@@]1(CCC2CCCCC2)CCCN(c2cc(F)c(S(=O)(=O)Nc3ccncn3)c(F)c2)C1 [Example 92, (S)-4-(3-(2-Cyclohexylethyl)-3-(dimethylamino)piperidin-1-yl)-2,6-difluoro-N-(pyrimidin-4-yl)benzenesulfonamide formate]  0.00382 µM
16. Cc1cc(N2CCC[C@@](CCc3cccc(C(F)(F)F)c3)(N(C)C)C2)cc(F)c1S(=O)(=O)Nc1ccncn1 [Example 10, (R)-4-(3-(Dimethylamino)-3-(3-(trifluoromethyl)-phenethyl)piperidin-1-yl)-2-fluoro-6-methyl-N-(pyrimidin-4-yl)benzenesulfonamide]  0.00266 µM
17. CN(C)[C@]1(C2CC(c3cccc(C(F)(F)F)c3)C2)CCCN(c2cc(F)c(S(=O)(=O)Nc3ccncn3)c(F)c2)C1 (stereo partly drawn) [Example 96, 4-((S)-3-(Dimethylamino)-3-((1s,3R)-3-(3-(trifluoromethyl)-phenyl)cyclobutyl)piperidin-1-yl)-2,6-difluoro-N-(pyrimidin-4-yl)benzenesulfonamide]  0.00181 µM
18. CN(C)[C@]1(C[C@H]2CCc3ccc(C(F)(F)F)cc32)CCCN(c2cc(F)c(S(=O)(=O)Nc3ccncn3)c(F)c2)C1 [Example 48, 4-((S)-3-(Dimethylamino)-3-(((R)-6-(trifluoromethyl)-2,3-dihydro-1H-inden-1-yl)methyl)piperidin-1-yl)-2,6-difluoro-N-(pyrimidin-4-yl)benzenesulfonamide formate]  0.00155 µM
19. CN(C)[C@]1(CCc2cc(Cl)cc(C(F)(F)F)c2)CCCN(c2cc(F)c(S(=O)(=O)Nc3ccncn3)c(F)c2)C1 [Example 43, (R)-4-(3-(3-Chloro-5-(trifluoromethyl)phenethyl)-3-(dimethylamino)piperidin-1-yl)-2,6-difluoro-N-(pyrimidin-4-yl)benzenesulfonamide]  0.000443 µM
